Assay results as given in patent publication US20240174655A1, “INDAZOLE DERIVATIVES AS ANTAGONISTS OF THE MUSCARINIC ACETYLCHOLINE RECEPTOR M4” (Vanderbilt University, priority 2021, published 2024).
Like-named read-outs stand apart in the source and are kept apart here.

Target: T1, Human M4 (Homo sapiens, UniProt P08173)
T1 construct: expressed in transfected cells; host or cells: CHO-K1 (Chinese hamster ovary, ATCC), stably expressing M4 and Gqi5
T1 sequence (P08173 1-479): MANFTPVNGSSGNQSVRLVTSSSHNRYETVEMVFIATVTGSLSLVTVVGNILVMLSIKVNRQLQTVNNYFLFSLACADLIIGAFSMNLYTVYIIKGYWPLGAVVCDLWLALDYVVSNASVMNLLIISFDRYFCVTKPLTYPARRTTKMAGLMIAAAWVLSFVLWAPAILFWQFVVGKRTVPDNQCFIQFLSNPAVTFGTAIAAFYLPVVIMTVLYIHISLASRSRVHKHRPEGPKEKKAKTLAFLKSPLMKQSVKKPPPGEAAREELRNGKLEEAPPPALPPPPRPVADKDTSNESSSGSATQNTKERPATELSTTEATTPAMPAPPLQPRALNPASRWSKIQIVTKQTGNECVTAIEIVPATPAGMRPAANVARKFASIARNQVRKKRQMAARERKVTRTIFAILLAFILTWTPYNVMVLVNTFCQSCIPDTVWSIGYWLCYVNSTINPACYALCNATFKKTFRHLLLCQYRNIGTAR
Experiment: mAChR M4 cell-based functional assay (calcium flux, EC80 acetylcholine response)
Experimental: Human or rat M4 cDNA, along with the chimeric G protein Gqi5, were transfected into Chinese hamster ovary (CHO-K1) cells purchased from the American Type Culture Collection using Lipofectamine2000. M4/Gqi5/CHO cells were grown in Ham's F-12 medium containing […] heat-inactivated fetal bovine serum (FBS), 20 mM HEPES, 500 μg/mL G418 sulfate, and 200 μg/mL Hygromycin B.
For high throughput measurement of agonist-evoked increases in intracellular calcium, CHO-K1 cells stably expressing muscarinic receptors were plated in growth medium lacking G418 and hygromycin at 15,000 cells/20 μL/well in Greiner 384-well black-walled, tissue culture (TC)-treated, clear-bottom plates (VWR). Cells were incubated overnight at 37° C. and 500 CO2. […] Compound master plates were formatted in a 10 point concentration-response curve (CRC) format (1:3 dilutions) in 100% DMSO with a starting concentration of 10 or 1 mM using a BRAVO liquid handler (Agilent). Test compound CRCs were then transferred to daughter plates (240 nL) using the Echo acoustic plate reformatter (Labcyte, Sunnyvale, CA) and then diluted into assay buffer (40 μL) to a 2× stock using a Thermo Fisher Combi (Thermo Fisher Scientific, Waltham, MA).
Calcium flux was measured using the Functional Drug Screening System (FDSS) 6000 or 7000 (Hamamatsu Corporation, Tokyo, Japan) as an increase in the fluorescent static ratio. Compounds were applied to cells (20 μL, 2×) using the automated system of the FDSS at 2 seconds into the protocol and the data were collected at 1 Hz. […] Agonist activity was analyzed as a concentration-dependent increase in calcium mobilization upon compound addition. Positive allosteric modulator activity was analyzed as a concentration-dependent increase in the EC20 acetylcholine response. Antagonist activity was analyzed as a concentration-dependent decrease in the EC80 acetylcholine response; for the purposes of the tables herein, an IC50 (inhibitory concentration 50) was calculated as a concentration-dependent decrease of the response elicited by an EC80 concentration of acetylcholine. Concentration-response curves were generated using a four-parameter logistical equation in XLFit curve fitting software (IDBS, Bridgewater, NJ) for Excel (Microsoft, Redmond, WA) or Prism (GraphPad Software, Inc., San Diego, CA) or the Dotmatics software platform (Dotmatics, Bishop's Stortford, UK).
Compounds were synthesized as described above.

[1] = M4/Gqi5/CHO-K1 cells, % ACh maximum at 30 μM, read-out: Human M4 Emin (% ACh maximum at 30 μM)
[2] = M4/Gqi5/CHO-K1 cells, decrease of the response to an EC80 concentration of acetylcholine, read-out: Human M4 IC50

Compound: Cc1c(-c2ccc(N[C@H]3C[C@@H]4CN(Cc5ccccn5)C[C@@H]4C3)nn2)ccc2nn(C)cc12 [compound 4, (3aR,5s,6aS)-N-(6-(2,4-dimethyl-2H-indazol-5-yl)pyridazin-3-yl)-2-(pyridin-2-ylmethyl)octahydrocyclopenta[c]pyrrol-5-amine]
- remaining activity at 30 µM [1]: 3%
- IC50 [2]: 2.2 nM

Compound: [2H]C([2H])([C@@H]1CCCCO1)N1C[C@H]2C[C@H](Nc3ccc(-c4ccc5nn(C)cc5c4C)nn3)C[C@H]2C1 [compound 12, (3aR,5s,6aS)-N-(6-(2,4-dimethyl-2H-indazol-5-yl)pyridazin-3-yl)-2-(((S)-tetrahydro-2H-pyran-2-yl)methyl-d2)octahydrocyclopenta[c]pyrrol-5-amine]
- remaining activity at 30 µM [1]: 2%
- IC50 [2]: 0.36 nM

Compound: [2H]C([2H])(C1CCOC(C)(C)C1)N1C[C@H]2C[C@H](Nc3ccc(-c4ccc5nn(C)cc5c4C)nn3)C[C@H]2C1 (stereo partly drawn) [compound 18, (3aR,5s,6aS)-N-(6-(2,4-dimethyl-2H-indazol-5-yl)pyridazin-3-yl)-2-((2,2-dimethyltetrahydro-2H-pyran-4-yl)methyl-d2)octahydrocyclopenta[c]pyrrol-5-amine]
- remaining activity at 30 µM [1]: 4%
- IC50 [2]: 0.99 nM

Compound: Cc1c(-c2nnc(N[C@H]3C[C@@H]4CN(CC5CCOCC5)C[C@@H]4C3)c3ccsc23)ccc2nn(C)cc12 [compound 25, 7-(2,4-dimethyl-2H-indazol-5-yl)-N-((3aR,5s,6aS)-2-((tetrahydro-2H-pyran-4-yl)methyl)-octahydrocyclopenta[c]pyrrol-5-yl)-thieno[2,3-d]pyridazin-4-amine]
- IC50: 0.5 nM
- remaining activity at 30 µM (CHO-K1, read-out: Human M4 Emin (% ACh maximum at 30 μM)): 7%

Compound: Cc1c(-c2ccc(N[C@H]3C[C@@H]4CN(CC5CCOCC5)C[C@@H]4C3)nn2)ccc2nn(C)cc12 [compound 2, (3aR,5s,6aS)-N-(6-(2,4-dimethyl-2H-indazol-5-yl)pyridazin-3-yl)-2-((tetrahydro-2H-pyran-4-yl)methyl)octahydrocyclopenta[c]pyrrol-5-amine]
- remaining activity at 30 µM [1]: 4%
- IC50 [2]: 0.41 nM

Compound: [2H]C([2H])(C1CCOCC1)N1C[C@H]2C[C@H](Nc3ccc(-c4ccc5nn(C(F)F)cc5c4C)nn3)C[C@H]2C1 [compound 10, (3aR,5s,6aS)-N-(6-(2-(difluoromethyl)-4-methyl-2H-indazol-5-yl)pyridazin-3-yl)-2-((tetrahydro-2H-pyran-4-yl)methyl-d2)octahydrocyclopenta[c]pyrrol-5-amine]
- remaining activity at 30 µM [1]: 2%
- IC50 [2]: 0.36 nM

Compound: [2H]C([2H])(C1CCOCC1)N1C[C@H]2C[C@H](Nc3ccc(-c4ccc5nn(C)cc5c4C)nn3)C[C@H]2C1 [compound 6, (3aR,5s,6aS)-N-(6-(2,4-dimethyl-2H-indazol-5-yl)pyridazin-3-yl)-2-((tetrahydro-2H-pyran-4-yl)methyl-d2)octahydrocyclopenta[c]pyrrol-5-amine]
- remaining activity at 30 µM [1]: 3%
- IC50 [2]: 0.59 nM

Compound: Cc1c(-c2cc(C(F)F)c(N[C@H]3C[C@@H]4CN(CC5CCOCC5)C[C@@H]4C3)nn2)ccc2nn(C)cc12 [compound 29, (3aR,5s,6aS)-N-(4-(difluoromethyl)-6-(2,4-dimethyl-2H-indazol-5-yl)pyridazin-3-yl)-2-((tetrahydro-2H-pyran-4-yl)methyl)octahydrocyclopenta[c]pyrrol-5-amine]
- remaining activity at 30 µM [1]: 3%

Compound: [2H]C1([2H])CC(C([2H])([2H])N2C[C@H]3C[C@H](Nc4nnc(-c5ccc6nn(C)cc6c5C)cc4C)C[C@H]3C2)CC([2H])([2H])O1 [compound 24, (3aR,5s,6aS)-N-(6-(2,4-dimethyl-2H-indazol-5-yl)-4-methylpyridazin-3-yl)-2-((tetrahydro-2H-pyran-4-yl-2,2,6,6-d4)methyl-d2)octahydrocyclopenta[c]pyrrol-5-amine]
- remaining activity at 30 µM [1]: 3%
- IC50 [2]: 0.21 nM

Compound: [2H]C([2H])(C1CCOCC1)N1C[C@H]2C[C@H](Nc3ccc(-c4ccc5nn(C)cc5c4C(F)(F)F)nn3)C[C@H]2C1 [compound 8, (3aR,5s,6aS)-N-(6-(2-methyl-4-(trifluoromethyl)-2H-indazol-5-yl)-pyridazin-3-yl)-2-((tetrahydro-2H-pyran-4-yl)methyl-d2)octahydrocyclopenta[c]pyrrol-5-amine]
- remaining activity at 30 µM [1]: 10%
- IC50 [2]: 1.1 nM

Compound: [2H]C([2H])([C@@H]1CCCOC1)N1C[C@H]2C[C@H](Nc3ccc(-c4ccc5nn(C)cc5c4C)nn3)C[C@H]2C1 [compound 13, (3aR,5s,6aS)-N-(6-(2,4-dimethyl-2H-indazol-5-yl)pyridazin-3-yl)-2-(((S)-tetrahydro-2H-pyran-3-yl)methyl-d2)octahydrocyclopenta[c]pyrrol-5-amine]
- remaining activity at 30 µM [1]: 4%
- IC50 [2]: 0.49 nM

Compound: [2H]C([2H])(N1C[C@H]2C[C@H](Nc3ccc(-c4ccc5nn(C)cc5c4C)nn3)C[C@H]2C1)C1(F)CCOCC1 [compound 20, (3aR,5s,6aS)-N-(6-(2,4-dimethyl-2H-indazol-5-yl)pyridazin-3-yl)-2-((4-fluorotetrahydro-2H-pyran-4-yl)methyl-d2)octahydrocyclopenta[c]pyrrol-5-amine]
- remaining activity at 30 µM [1]: 4%
- IC50 [2]: 0.99 nM

Compound: [2H][C@@]1(Nc2ccc(-c3ccc4nn(C)cc4c3C)nn2)C[C@H]2CN(CC3CCOCC3)C[C@H]2C1 [compound 3, (3aR,5s,6aS)-N-(6-(2,4-dimethyl-2H-indazol-5-yl)pyridazin-3-yl)-2-((tetrahydro-2H-pyran-4-yl)methyl)octahydrocyclopenta[c]pyrrol-5-d-5-amine]
- remaining activity at 30 µM [1]: 2%
- IC50 [2]: 0.33 nM

Compound: [2H]C([2H])(C1CCOCC1)N1C[C@H]2C[C@H](Nc3nnc(-c4ccc5nn(C)cc5c4C)cc3C)C[C@H]2C1 [compound 28, (3aR,5s,6aS)-N-(6-(2,4-dimethyl-2H-indazol-5-yl)-4-methylpyridazin-3-yl)-2-((tetrahydro-2H-pyran-4-yl)methyl-d2)octahydrocyclopenta[c]pyrrol-5-amine]
- remaining activity at 30 µM [1]: 17%

Compound: Cn1cc2c(C(F)(F)F)c(-c3ccc(N[C@H]4C[C@@H]5CN(CC6CCOCC6)C[C@@H]5C4)nn3)ccc2n1 [compound 7, (3aR,5s,6aS)-N-(6-(2-methyl-4-(trifluoromethyl)-2H-indazol-5-yl)pyridazin-3-yl)-2-((tetrahydro-2H-pyran-4-yl)methyl)octahydrocyclopenta[c]pyrrol-5-amine]
- remaining activity at 30 µM [1]: 3%
- IC50 [2]: 1.5 nM

Compound: [2H]C([2H])(N1C[C@H]2C[C@H](Nc3ccc(-c4ccc5nn(C)cc5c4C)nn3)C[C@H]2C1)C(F)(F)C1CCOCC1 [compound 23, (3aR,5s,6aS)-2-(2,2-difluoro-2-(tetrahydro-2H-pyran-4-yl)ethyl-1,1-d2)-N-(6-(2,4-dimethyl-2H-indazol-5-yl)-pyridazin-3-yl)octahydrocyclopenta[c]pyrrol-5-amine]
- remaining activity at 30 µM [1]: 4%
- IC50 [2]: 1.8 nM

Compound: [2H]C([2H])(C1CCOCC1)N1C[C@H]2C[C@H](Nc3ccc(-c4ccc5nn(C([2H])([2H])[2H])cc5c4C(F)F)nn3)C[C@H]2C1 [compound 22, (3aR,5s,6aS)-N-(6-(4-(difluoromethyl)-2-(methyl-d3)-2H-indazol-5-yl)pyridazin-3-yl)-2-((tetrahydro-2H-pyran-4-yl)methyl-d2)octahydrocyclopenta[c]pyrrol-5-amine]
- remaining activity at 30 µM [1]: 4%
- IC50 [2]: 0.65 nM
